pIC50: −log10 of the molar value. Like-named read-outs stand apart in the source and are kept apart here.
Experiments:
Assay in all cases: Ras-Raf disruption / FRET / MOA assay (BRAF RBD)
Assay type in all cases: biochemical
KRAS G12D = KRAS G12D (Homo sapiens, UniProt P01116+P62937, G12D); conditions: with Cyclophilin A
How it was run: (§1)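 TR-FRET in 25 mM HEPES pH 7.3, 100 mM NaCl, 5 mM MgCl2, 0.1% BSA, 0.002% Tween20 with 25 μM Cyclophilin A, 12.5 nM His6-Ras-GMPPNP, 50 nM GST-BRAF RBD; compound 10-point 3-fold series from 30 μM. After 3 h at 25 °C, Eu anti-His/APC anti-GST added for 1.5 h; IC50 from ratio decrease versus DMSO.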

KRAS G12S = KRAS G12S (Homo sapiens, UniProt P01116+P62937, G12S); conditions: with Cyclophilin A
KRAS G12S, sequence (P01116 1-169 isoform P01116-2 G12S limits assumed): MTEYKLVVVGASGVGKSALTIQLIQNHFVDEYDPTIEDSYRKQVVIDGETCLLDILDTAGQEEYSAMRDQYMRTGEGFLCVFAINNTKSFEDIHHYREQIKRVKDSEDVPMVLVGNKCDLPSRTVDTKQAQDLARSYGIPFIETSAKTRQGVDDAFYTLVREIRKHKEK
KRAS G12S, sequence (P62937 whole entry): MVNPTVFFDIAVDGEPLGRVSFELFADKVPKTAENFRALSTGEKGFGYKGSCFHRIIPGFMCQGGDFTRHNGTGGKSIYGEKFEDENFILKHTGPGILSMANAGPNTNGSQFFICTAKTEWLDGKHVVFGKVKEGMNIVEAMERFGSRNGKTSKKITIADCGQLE
How it was run: as §1

KRAS G12V = KRAS G12V (Homo sapiens, UniProt P01116+P62937, G12V); conditions: with Cyclophilin A
KRAS G12V, sequence (P01116 1-169 isoform P01116-2 G12V limits assumed): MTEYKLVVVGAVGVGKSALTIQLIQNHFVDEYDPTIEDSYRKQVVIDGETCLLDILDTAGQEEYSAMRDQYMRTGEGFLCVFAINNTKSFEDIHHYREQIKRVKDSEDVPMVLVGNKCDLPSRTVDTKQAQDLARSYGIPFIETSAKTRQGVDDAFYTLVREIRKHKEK
KRAS G12V, sequence (P62937 whole entry): as the sequence (P62937 whole entry) above
How it was run: as §1

KRAS G13C = KRAS G13C (Homo sapiens, UniProt P01116+P62937, G13C); conditions: with Cyclophilin A
KRAS G13C, sequence (P01116 1-169 isoform P01116-2 G13C limits assumed): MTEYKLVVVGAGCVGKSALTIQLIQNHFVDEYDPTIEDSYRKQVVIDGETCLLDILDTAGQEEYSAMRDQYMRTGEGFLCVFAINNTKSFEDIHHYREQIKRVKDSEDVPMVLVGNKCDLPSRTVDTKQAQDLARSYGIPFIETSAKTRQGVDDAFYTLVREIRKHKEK
KRAS G13C, sequence (P62937 whole entry): as the sequence (P62937 whole entry) above
How it was run: as §1

KRAS G13D = KRAS G13D (Homo sapiens, UniProt P01116+P62937, G13D); conditions: with Cyclophilin A
KRAS G13D, sequence (P01116 1-169 isoform P01116-2 G13D limits assumed): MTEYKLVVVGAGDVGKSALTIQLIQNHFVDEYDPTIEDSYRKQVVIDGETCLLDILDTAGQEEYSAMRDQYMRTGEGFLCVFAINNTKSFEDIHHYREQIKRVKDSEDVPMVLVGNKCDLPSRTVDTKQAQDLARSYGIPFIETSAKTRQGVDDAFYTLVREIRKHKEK
KRAS G13D, sequence (P62937 whole entry): as the sequence (P62937 whole entry) above
How it was run: as §1

KRAS Q61H = KRAS Q61H (Homo sapiens, UniProt P01116+P62937, Q61H)
KRAS Q61H, sequence (P01116 1-169 isoform P01116-2 Q61H limits assumed): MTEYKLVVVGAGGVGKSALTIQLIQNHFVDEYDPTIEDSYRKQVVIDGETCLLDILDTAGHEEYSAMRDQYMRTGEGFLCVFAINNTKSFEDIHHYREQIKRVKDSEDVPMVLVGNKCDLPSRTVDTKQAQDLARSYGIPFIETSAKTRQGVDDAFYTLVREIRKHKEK
KRAS Q61H, sequence (P62937 whole entry): as the sequence (P62937 whole entry) above
How it was run: as §1

KRAS WT = KRAS WT (Homo sapiens, UniProt P01116+P62937); conditions: with Cyclophilin A
KRAS WT, sequence (P01116 1-169 isoform P01116-2 limits assumed): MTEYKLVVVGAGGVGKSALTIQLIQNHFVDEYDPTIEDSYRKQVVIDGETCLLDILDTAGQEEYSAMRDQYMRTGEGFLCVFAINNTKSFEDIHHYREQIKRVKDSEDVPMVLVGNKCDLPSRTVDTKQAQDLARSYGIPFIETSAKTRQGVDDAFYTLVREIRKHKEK
KRAS WT, sequence (P62937 whole entry): as the sequence (P62937 whole entry) above
How it was run: as §1

NRAS G12C = NRAS G12C (Homo sapiens, UniProt P01111+P62937, G12C)
NRAS G12C, sequence (P01111 whole entry G12C): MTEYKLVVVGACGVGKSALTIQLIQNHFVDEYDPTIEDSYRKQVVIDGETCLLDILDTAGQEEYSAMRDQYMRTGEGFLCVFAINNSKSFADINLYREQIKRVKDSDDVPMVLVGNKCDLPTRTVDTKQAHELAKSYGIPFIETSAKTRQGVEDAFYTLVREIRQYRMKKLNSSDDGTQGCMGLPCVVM
NRAS G12C, sequence (P62937 whole entry): as the sequence (P62937 whole entry) above
How it was run: as §1

NRAS Q61K = NRAS Q61K (Homo sapiens, UniProt P01111+P62937, Q61K)
NRAS Q61K, sequence (P01111 whole entry Q61K): as the sequence (P01111 whole entry G12C) above, with C12G, Q61K counted along it
NRAS Q61K, sequence (P62937 whole entry): as the sequence (P62937 whole entry) above
How it was run: as §1

NRAS Q61R = NRAS Q61R (Homo sapiens, UniProt P01111+P62937, Q61R)
NRAS Q61R, sequence (P01111 whole entry Q61R): as the sequence (P01111 whole entry G12C) above, with C12G, Q61R counted along it
NRAS Q61R, sequence (P62937 whole entry): as the sequence (P62937 whole entry) above
How it was run: as §1

NRAS WT = NRAS WT (Homo sapiens, UniProt P01111+P62937)
NRAS WT, sequence (P01111 whole entry): as the sequence (P01111 whole entry G12C) above, with C12G counted along it
NRAS WT, sequence (P62937 whole entry): as the sequence (P62937 whole entry) above
How it was run: as §1

KRAS G12C = KRAS G12C (Homo sapiens, UniProt P01116+P62937, G12C); conditions: with Cyclophilin A
KRAS G12C, sequence (P01116 1-169 isoform P01116-2 G12C limits assumed): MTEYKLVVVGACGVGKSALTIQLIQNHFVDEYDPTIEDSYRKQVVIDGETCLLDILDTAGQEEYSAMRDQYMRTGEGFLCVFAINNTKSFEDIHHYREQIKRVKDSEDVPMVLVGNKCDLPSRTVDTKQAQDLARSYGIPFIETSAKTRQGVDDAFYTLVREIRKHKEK
KRAS G12C, sequence (P62937 whole entry): as the sequence (P62937 whole entry) above
How it was run: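 His6-K-Ras G12C-GMPPNP (12.5 nM), GST-BRAF RBD (50 nM) and tagless Cyclophilin A (25 μM) incubated 3 h at 25 °C with compound (10-point 3-fold series from 30 μM), pH 7.3 HEPES buffer. Anti-His Eu/anti-GST APC added for 1.5 h; decreased TR-FRET ratio vs DMSO gives IC50.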

[1] = Ras-Raf disruption, read-out: KRAS G12D FRET data IC50
[2] = Ras-Raf disruption, read-out: KRAS G12S FRET data IC50
[3] = Ras-Raf disruption, read-out: KRAS G12V FRET data IC50
[4] = Ras-Raf disruption, read-out: KRAS G13C FRET data IC50
[5] = Ras-Raf disruption, read-out: KRAS G13D FRET data IC50
[6] = KRAS Q61H, read-out: KRAS Q61H FRET data IC50
[7] = Ras-Raf disruption, read-out: KRAS WT FRET data IC50
[8] = NRAS G12C, read-out: NRAS G12C FRET data IC50
[9] = NRAS Q61K, read-out: NRAS Q61K FRET data IC50
[10] = NRAS Q61R, read-out: NRAS Q61R FRET data IC50
[11] = NRAS WT, read-out: NRAS WT FRET data IC50
[12] = Ras-Raf disruption, read-out: KRAS G12C FRET data IC50
[13] = KRAS G12D FRET data IC50, Ras-Raf disruption
[14] = KRAS G12S FRET data IC50, Ras-Raf disruption
[15] = KRAS G12V FRET data IC50, Ras-Raf disruption
[16] = KRAS G13C FRET data IC50, Ras-Raf disruption
[17] = KRAS G13D FRET data IC50, Ras-Raf disruption
[18] = KRAS WT FRET data IC50, Ras-Raf disruption
[19] = NRAS G12C FRET data IC50, NRAS G12C
[20] = KRAS G12C FRET data IC50, Ras-Raf disruption

KRAS G12D, sequence (P01116 1-169 isoform P01116-2 G12D limits assumed): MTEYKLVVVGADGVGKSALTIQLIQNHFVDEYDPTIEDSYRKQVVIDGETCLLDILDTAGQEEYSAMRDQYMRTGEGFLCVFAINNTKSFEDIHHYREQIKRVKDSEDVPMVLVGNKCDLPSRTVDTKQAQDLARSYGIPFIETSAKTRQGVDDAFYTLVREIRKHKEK
KRAS G12D, sequence (P62937 whole entry): as the sequence (P62937 whole entry) above

Compound | pIC50 (KRAS G12D; [1]) | pIC50 (KRAS G12S; [2]) | pIC50 (KRAS G12V; [3]) | pIC50 (KRAS G13C; [4]) | pIC50 (KRAS G13D; [5]) | pIC50 (KRAS Q61H; [6]) | pIC50 (KRAS WT; [7]) | pIC50 (NRAS G12C; [8]) | pIC50 (NRAS Q61K; [9]) | pIC50 (NRAS Q61R; [10]) | pIC50 (NRAS WT; [11]) | pIC50 (KRAS G12C; [12]) | pIC50 (KRAS G12D; [13]) | pIC50 (KRAS G12S; [14]) | pIC50 (KRAS G12V; [15]) | pIC50 (KRAS G13C; [16]) | pIC50 (KRAS G13D; [17]) | pIC50 (KRAS Q61H) | pIC50 (KRAS WT; [18]) | pIC50 (NRAS G12C; [19]) | other results
CCOC(=O)[C@H]1O[C@@H]1C(=O)N1CC[C@H](C(=O)N(C)[C@H](C(=O)N[C@H]2Cc3cc(O)cc(c3)-c3ccc4c(c3)c(c(-c3cccnc3[C@H](C)OC)n4CC)CC(C)(C)COC(=O)[C@@H]3CCCN(N3)C2=O)C(C)C)C1 [Example 329] | 6.00 to 7.00 | 7.00 to 8.00 | 7.00 to 8.00 | > 8.00 | 7.00 to 8.00 | 7.00 to 8.00 | 7.00 to 8.00 | > 8.00 | 7.00 to 8.00 | 7.00 to 8.00 | 7.00 to 8.00 | > 8.00 |  |  |  |  |  |  |  |  | 
CCn1c(-c2cccnc2[C@H](C)OC)c2c3cc(ccc31)-c1cc(O)cc(c1)C[C@H](NC(=O)[C@H](C(C)C)N(C)C(=O)C13CC(CN1C(=O)[C@H]1CN1)C3)C(=O)N1CCC[C@H](N1)C(=O)OCC(C)(C)C2 [Example 164] |  |  |  |  |  |  |  |  |  |  |  |  | 6.00 to 7.00 | 6.00 to 7.00 | 6.00 to 7.00 | 6.00 to 7.00 | 6.00 to 7.00 | 7.00 to 8.00 | 6.00 to 7.00 | 6.00 to 7.00 | pIC50 (NRAS Q61K): 5.00 to 6.00; pIC50 (NRAS Q61R): 5.00 to 6.00; pIC50 (NRAS WT): 6.00 to 7.00; pIC50 (KRAS G12C; [20]): 6.00 to 7.00
CCn1c(-c2cccnc2[C@H](C)OC)c2c3cc(ccc31)-c1cc(O)cc(c1)C[C@H](NC(=O)[C@H](C(C)C)N(C)C(=O)CN(C)C(=O)[C@H]1C[C@@H]3N[C@@H]3C1)C(=O)N1CCC[C@H](N1)C(=O)OCC(C)(C)C2 (atropisomer, axis not shown) [Example 285] | 7.00 to 8.00 | 7.00 to 8.00 | 7.00 to 8.00 | > 8.00 | 7.00 to 8.00 | 7.00 to 8.00 | 7.00 to 8.00 | 7.00 to 8.00 | 6.00 to 7.00 | 6.00 to 7.00 | 7.00 to 8.00 | 7.00 to 8.00 |  |  |  |  |  |  |  |  | 
CCn1c(-c2cccnc2[C@H](C)OC)c2c3cc(ccc31)-c1csc(n1)C[C@H](NC(=O)[C@H](C(C)C)N(C)C(=O)N1CC[C@@H](N(C)C(=O)[C@@H]3CN3)C1)C(=O)N1CCC[C@H](N1)C(=O)OCC(C)(C)C2 (atropisomer, axis not shown) [Example 227] | 6.00 to 7.00 | 6.00 to 7.00 | 6.00 to 7.00 | 6.00 to 7.00 | 6.00 to 7.00 | 7.00 to 8.00 | 6.00 to 7.00 | 7.00 to 8.00 | 7.00 to 8.00 | 6.00 to 7.00 | 6.00 to 7.00 | 6.00 to 7.00 |  |  |  |  |  |  |  |  | 
CCn1c(-c2cccnc2[C@H](C)OC)c2c3cc(ccc31)-c1cc(O)cc(c1)C[C@H](NC(=O)[C@H](C(C)C)N(C)C(=O)[C@H]1CCCCN(C(=O)[C@H]3CN3)C1)C(=O)N1CCC[C@H](N1)C(=O)OCC(C)(C)C2 (atropisomer, axis not shown) [Example 247] | 5.00 to 6.00 | 6.00 to 7.00 | 6.00 to 7.00 | 6.00 to 7.00 | 6.00 to 7.00 | 6.00 to 7.00 | 6.00 to 7.00 | 7.00 to 8.00 | 5.00 to 6.00 | 5.00 to 6.00 | 6.00 to 7.00 | 7.00 to 8.00 |  |  |  |  |  |  |  |  | 
CCn1c(-c2cccnc2[C@H](C)OC)c2c3cc(ccc31)-c1cc(O)cc(c1)C[C@H](NC(=O)[C@H](C1CCCC1)N(C)C(=O)CN(C)C(=O)[C@@H]1N[C@@H]1C1(C#N)CC1)C(=O)N1CCC[C@H](N1)C(=O)OCC(C)(C)C2 (single isomer, unassigned) [Example 308] |  |  |  |  |  |  |  |  |  |  |  |  | 6.00 to 7.00 | 7.00 to 8.00 | 6.00 to 7.00 | 7.00 to 8.00 | 6.00 to 7.00 | 7.00 to 8.00 | 7.00 to 8.00 | 7.00 to 8.00 | pIC50 (NRAS Q61K): 6.00 to 7.00; pIC50 (NRAS Q61R): 6.00 to 7.00; pIC50 (NRAS WT): 7.00 to 8.00; pIC50 (KRAS G12C; [20]): 7.00 to 8.00
CCn1c(-c2cccnc2[C@H](C)OC)c2c3cc(ccc31)-c1cc(O)cc(c1)C[C@H](NC(=O)[C@H](C1CCCC1)N(C)C(=O)CN(C)C(=O)[C@@H]1N[C@@H]1C1(OC)CC1)C(=O)N1CCC[C@H](N1)C(=O)OCC(C)(C)C2 (single isomer, unassigned) [Example 323] |  |  |  |  |  |  |  |  |  |  |  |  | 6.00 to 7.00 | 7.00 to 8.00 | 7.00 to 8.00 | 7.00 to 8.00 | 6.00 to 7.00 | 7.00 to 8.00 | 7.00 to 8.00 | 7.00 to 8.00 | pIC50 (NRAS Q61K): 6.00 to 7.00; pIC50 (NRAS Q61R): 6.00 to 7.00; pIC50 (NRAS WT): 7.00 to 8.00; pIC50 (KRAS G12C; [20]): 7.00 to 8.00
CCn1c(-c2cccnc2[C@H](C)OC)c2c3cc(ccc31)-c1cc(O)cc(c1)C[C@H](NC(=O)[C@H](C(C)C)N1CC[C@]3(CCN(C(=O)[C@@H]4N[C@@H]4C4CC4)C3)C1=O)C(=O)N1CCC[C@H](N1)C(=O)OCC(C)(C)C2 [Example 305] | > 8.00 | 7.00 to 8.00 | 7.00 to 8.00 | 7.00 to 8.00 | 6.00 to 7.00 | 7.00 to 8.00 | 7.00 to 8.00 | 7.00 to 8.00 | 6.00 to 7.00 | 6.00 to 7.00 | 7.00 to 8.00 | 7.00 to 8.00 |  |  |  |  |  |  |  |  | 
CCn1c(-c2cccnc2[C@H](C)OC)c2c3cc(ccc31)-c1csc(n1)C[C@H](NC(=O)[C@H](C(C)C)N(C)C(=O)N1CCCN(C(=O)[C@H]3CN3)CC1)C(=O)N1CCC[C@H](N1)C(=O)OCC(C)(C)C2 (atropisomer, axis not shown) [Example 222] | 6.00 to 7.00 | 7.00 to 8.00 | 6.00 to 7.00 | 6.00 to 7.00 | 6.00 to 7.00 | 7.00 to 8.00 | 7.00 to 8.00 | 7.00 to 8.00 | 7.00 to 8.00 | 7.00 to 8.00 | 7.00 to 8.00 | 7.00 to 8.00 |  |  |  |  |  |  |  |  | 

— patent publication US20230233569A1 (Revolution Medicines, Inc., priority 2020, published 2023)
